Values quoted from earlier work, collected in patent US20090170848A1, “THIAZOLONES FOR USE AS PI3 KINASE INHIBITORS” (SMITHKLINE BEECHAM CORPORATION, priority 2006, published 2009).
Like-named read-outs stand apart in the source and are kept apart here.

Assays:
CK2 protein kinase = CK2 protein kinase (Homo sapiens, UniProt P68400)
Sequence of CK2 protein kinase (P68400 whole entry): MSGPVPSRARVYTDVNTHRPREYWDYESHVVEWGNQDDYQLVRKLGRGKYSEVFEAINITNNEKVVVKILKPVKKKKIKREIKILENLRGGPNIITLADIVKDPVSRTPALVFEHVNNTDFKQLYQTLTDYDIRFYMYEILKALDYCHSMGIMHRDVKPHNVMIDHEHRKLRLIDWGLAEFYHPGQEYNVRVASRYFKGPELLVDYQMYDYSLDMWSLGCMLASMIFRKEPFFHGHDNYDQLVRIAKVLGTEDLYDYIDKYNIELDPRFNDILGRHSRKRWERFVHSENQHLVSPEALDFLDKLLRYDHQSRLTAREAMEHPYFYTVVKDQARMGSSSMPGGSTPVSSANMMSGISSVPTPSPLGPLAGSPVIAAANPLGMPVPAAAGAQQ

## O=c1cc(N2CCOCC2)oc2c(-c3ccccc3)cccc12 [LY294002]
Class I PI3-kinases; read-out: IC50 values against each of these PI3-kinases
  IC50: 15 to 20 µM
CK2 protein kinase
  IC50: 5 to 10 µM

## COC[C@H]1OC(=O)c2coc3c2[C@@]1(C)C1=C(C3=O)[C@@H]2CCC(=O)[C@@]2(C)C[C@H]1OC(C)=O [wortmannin]
Class I PI3-kinases; each of the four members of Class I PI3-kinases, read-out: IC50 values against each of the various Class I PI3-kinases
  IC50: 0.001 to 0.01 µM
